Data: patent publication US20060009433A1, “Neuroprotective spirostenol pharmaceutical compositions” (priority 2003, published 2006)

What was measured:
NT2 cells [1] = experiment: Flow cytometry of NT2 cells (cell cycle); type: cell-based, human; conditions: 25 μM, 12 days of treatment
Description: Human NT2 precursor (Ntera2/D 1 teratocarcinoma) cells were obtained from Stratagene (La Jolla, Calif., USA) and cultured following the instructions of the supplier. […] After trypsinization, the cells were collected, suspended (1-2×10^6 cells in 0.1 ml citrate/DMSO solution), stained with a solution containing propidium iodide (50 μg/ml) and RNase (10 μg/ml), and subjected to flow cytometric analysis in an FACS Scan flow cytometer (Becton Dickinson, Menlo Park, Calif., USA) equipped with a Modfit software program (Vindelov et al., Cytometry, 3, 332 (1983)).

Aβ25-35 = Aβ25-35 (Homo sapiens, UniProt P05067); experiment: CPBBA, Aβ25-35; type: binding
Description: (§1) At the end of the incubation time, samples were separated by 1.5% agarose (Type I-B) gel electrophoresis and transferred to nitrocellulose membrane (Schleicher & Schuell, Keene, N.H.) in 10×SSC buffer. The membrane was exposed to tritium-sensitive screen and analyzed by phosphoimaging using the Cyclone Storage phosphor system (Packard BioScience, Meridien, Conn.). Image-densitometric analysis was performed using the OptiQuant software (Packard). […] Low molecular weight unincorporated 22i-hydroxycholesterol is separated and eliminated during electrophoresis.

Aβ1-42 [2] = biological target: T1, Aβ1-42 (Homo sapiens, UniProt P05067); experiment: Aβ aggregation assay (SDS-PAGE, immunoblot); type: biochemical; conditions: 50 μM Aβ1-42; 24 hours at 37° C.
Description: At the end of the incubation, proteins were separated by SDS-PAGE on 4-20% gradient acrylamide-bis-acrylamide gel at 125V for 2 hours. Proteins were visualized by coomassie blue staining. Aβ species were identified by immunoblot analysis. Yao, Z. et al., Brain Res. (2001).
The ability of 22R-hydroxycholesterol to alter Aβ aggregation was also examined. […] At the end of the incubation proteins were separated by SDS-PAGE and visualized by coomassie blue (FIG. 6A). Aβ species formed were identified by immunoblotting using an anti-Aβ polyclonal antiserum (FIG. 6B). Aβ aggregation can be seen on the top of the gel and it is absent in control-media lane. […] A 100 kDa band recognized by the Aβ polyclonal antiserum used in all samples, including control-media, probably reflects non-specific binding of the antiserum.

Aβ1-40 = biological target: T2, Aβ1-40 (Homo sapiens, UniProt P05067); experiment: CPBBA, Aβ1-40; type: binding
T2 construct: purchased American Peptide Co. (Sunnyvale, Calif.)
Description: as §1

human NT2 cells [3] = experiment: Trypan blue dye exclusion assay, NT2 cells; type: cell-based; conditions: 25 μM steroid, 72 hours
Description: (§2) Rat PC12 cells were cultured as previously described. Yao et al., Brain Res. 889, 181-190 (2001). Human NT2 precursor (Ntera2/D1 teratocarcinoma) cells were obtained from Stratagene (La Jolla, Calif.) and cultured following the instructions of the supplier. Differentiated human NT2 neurons (NT2N) were obtained after treatment of the NT2 precursor cells with retinoic acid. Andrews, Dev. […] Aβ was dissolved in media and used either in the aggregated (left overnight at 4° C.) or soluble (containing oligomers such as dimers and tetramers) forms examined by electrophoresis as previously described. Yao et al., Brain Res. (2001). […] Id. Cell viability was measured using the trypan blue exclusion method as previously described. Id. In brief, for these studies, cells were treated for 72 hours with steroids in the presence or absence of increasing concentrations of Aβ. At the end of the incubation, the cells were washed three times with PBS and incubated for 15 minutes with 0.1% trypan blue stain solution at room temperature. After washing three times with PBS, 0.1 N NaOH was added to the cells and trypan blue staining was quantified using the Victor quantitative detection spectrophotometer (EGG-Wallac, Gaithersburg, Md.) at 450 nm. Cell protein levels were determined in the same samples by the method of Bradford (Bradford, Anal. Biochem., 72, 248-254 (1976)), where coomassie blue staining is detected at 590 nm.
(§3) The results obtained from using MTT assay were further confirmed with the trypan blue dye exclusion assay. […] Levels of viability were measured using the trypan blue assay as described under Materials and Methods. Results are expressed as fold trypan blue stained cells per total cell protein over control untreated cells. Results shown are means±SD (n=6-12).

[4] = test system: differentiated human NT2N neurons; experiment: MTT assay, Aβ1-42-induced toxicity on differentiated NT2N neurons; type: cell-based; conditions: for protection against Aβ-induced toxicity: 25 μM Aβ1-42, 72 hours
NT2 cells [5] = experiment: BrdU assay, NT2 cell proliferation; type: cell-based, human
[6] = test system: PC12 cells, MDA-MB-231 cells or the human glioma cell line U87; experiment: Differentiation in other cell lines; type: cell-based; conditions: data not shown
human NT2 cells [7] = experiment: MTT assay, glutamate-induced toxicity in NT2 cells; type: cell-based; conditions: 5 mM glutamate, three days; 1 to 50 μM compound; data not shown
Aβ17-40 = biological target: T3, Aβ17-40 (Homo sapiens, UniProt P05067); experiment: CPBBA, Aβ17-40; type: binding
T3 construct: purchased American Peptide Co. (Sunnyvale, Calif.)
Description: as §1

Aβ1-42 [8] = biological target: T1, Aβ1-42; experiment: Cholesterol-protein binding blot assay (CPBBA), Aβ1-42; conditions: for inhibition of binding of radiolabeled 22R-hydroxycholesterol to Aβ1-42: 50 μM Aβ1-42
Description: as §1
The membrane with the 22R-hydroxycholesterol-Aβ peptide complexes was then used to examine Aβ levels. Membranes were blocked by incubating the nitrocellulose in 5% milk and treated for immunodetection of Aβ using ECL reagents (Amersham-Pharmacia, Piscataway, N.J.). Li et al., Proc. Natl. Acad. Sci. USA, 98, 1267-1272 (2001). Anti-Aβ antibody and secondary antibodies were used at 0.2 μg/ml and 1:5000 dilution, respectively.

rat PC12 cells = experiment: Trypan blue dye exclusion assay, PC12 cells (Example I); type: cell-based; conditions: 100 μM steroid, 72 hours
Description: as §2, §3

T1 sequence (P05067 672-713): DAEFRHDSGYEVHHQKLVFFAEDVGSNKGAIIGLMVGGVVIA
T3 sequence (P05067 688-711 limits assumed): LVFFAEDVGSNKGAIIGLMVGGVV
T2 sequence (P05067 672-711): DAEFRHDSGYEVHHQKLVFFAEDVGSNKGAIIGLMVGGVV

With `CC(C)CC[C@@H](O)[C@@H](C)[C@H]1CC[C@H]2[C@@H]3CC=C4C[C@@H](O)CC[C@]4(C)[C@H]3CC[C@]12C` [SP222, 22R-hydroxycholesterol] the “percentage of cells in the G2/M phase” value (NT2 cells [1]; from 34.43%) was 15.90%, the “percentage of cells in the G0/G1 phase” value (NT2 cells [1]; from 35.32%) was 50.34% and the “binding to Aβ25-35” value (Aβ25-35) was “did not bind”. For the same molecule, the “effect on Aβ aggregation” value (Aβ1-42 [2]) was “did not affect Aβ aggregation”, the “binding to Aβ1-40” value (Aβ1-40) was “barely interacts” and the “rescue from Aβ1-42-induced cell death” value (human NT2 cells [3]) was “rescued”. For the same molecule, the “rescue from Aβ25-35-induced cell death” value (human NT2 cells [3]) was “Neither 22R-hydroxycholesterol nor DHEA could rescue”, the “protection against Aβ-induced toxicity” value ([4]; 1 μM compound) was 50% and the “protection against Aβ-induced toxicity” value ([4]; 10 μM compound) was 100%. For the same molecule, the IC50 ([4]; Homo sapiens, Neuron, NT2T cells, read-out: IC50 of protection from Aβ-induced toxicity) was 3 µM, the “NT2 cell proliferation at 25 μM” value (NT2 cells [5]; 25 μM) was “significantly inhibited” and the “NT2 cell proliferation at 50 μM” value (NT2 cells [5]; 50 μM) was “significantly inhibited”. For the same molecule, the “induction of differentiation in PC12, MDA-MB-231 or U87 cells” value [6] was “such an effect was not found”, the “protection against glutamate-induced decrease in cell viability” value (human NT2 cells [7]) was “failed to protect the cells” and the “binding to Aβ17-40” value (Aβ17-40; CPBBA) was “binds”. The “22R-hydroxycholesterol-binding site in Aβ” value (Aβ17-40; CPBBA with various Aβ synthetic peptides) was “amino acids 17-40 of Aβ”, the “inhibition of binding of radiolabeled 22R-hydroxycholesterol to Aβ1-42” value (Aβ1-42 [8]; 50 μM unlabeled) was 50% and the “inhibition of binding of radiolabeled 22R-hydroxycholesterol to Aβ1-42” value (Aβ1-42 [8]; 200 μM unlabeled) was 90%. The “binding to Aβ1-42” value (Aβ1-42 [8]; CPBBA, native conditions) was “binds”, the “rescue from Aβ1-42-induced cell death” value (rat PC12 cells) was “rescued” and the “rescue from Aβ25-35-induced cell death” value (rat PC12 cells) was “Neither 22R-hydroxycholesterol nor DHEA could rescue”.
